Results from patent publication US5462935A, “Cephalosporin compounds” (Lucky Limited, priority 1990, dated 1995).
Converted amounts (≈) assume the structure as drawn. Like-named read-outs stand apart in the source and are kept apart here.

Columns and labels:
[1] = test system: Staphylococcus epidermidis ATCC 10537; assay: minimal inhibitory concentration, two-fold agar dilution; type: cell-based; settings: ATCC10537, Muller-Hinton agar, 37° C., 20 hours
Protocol: (§1) These NIC values were taken by employing a two-fold dilution method: that is, two-fold serial dilutions of each of the test compounds were made and dispersed in a Muller-Hinton agar medium; 2 μl of the standard test strain which had the 10^7 CFU (Colony Forming Unit) per ml was inoculated on the medium; and these were incubated at 37° C. for 20 hours.

[2] = test system: Enterobacter cloacae ATCC 27508; assay: as above; type: cell-based; settings: ATCC27508, Muller-Hinton agar, 37° C., 20 hours
Protocol: as §1

[3] = test system: Pseudomonas aeruginosa ATCC 25619; assay: as above; type: cell-based; settings: ATCC25619, Muller-Hinton agar, 37° C., 20 hours
Protocol: as §1

ATCC 12228 = assay: as above; type: cell-based; settings: Staphylococcus faecalis, ATCC12228, 20 h
Protocol: as §1

[4] = test system: Providencia rettgeri ATCC 9250; assay: as above; type: cell-based; settings: ATCC9250, Muller-Hinton agar, 37° C., 20 hours
Protocol: as §1

[5] = test system: Acinetobacter calcoaceticus ATCC 15473; assay: as above; type: cell-based; settings: ATCC15473, Muller-Hinton agar, 37° C., 20 hours
Protocol: as §1

[6] = test system: Staphylococcus aureus ATCC 6638p; assay: as above; type: cell-based; settings: ATCC6638P, 20 h
Protocol: as §1

[7] = test system: Serratia marcescens ATCC 27117; assay: as above; type: cell-based; settings: ATCC27117, Muller-Hinton agar, 37° C., 20 hours
Protocol: as §1

[8] = test system: Shigella flexneri ATCC 11836; assay: as above; type: cell-based; settings: ATCC11836, Muller-Hinton agar, 37° C., 20 hours
Protocol: as §1

[9] = test system: Salmonella typhimurium ATCC 14028; assay: as above; type: cell-based; settings: Salmonella enterica, Muller-Hinton agar, 37° C., 20 hours
Protocol: as §1

[10] = test system: Micrococcus luteus ATCC 9341; assay: as above; type: cell-based; settings: ATCC9341, Muller-Hinton agar, 37° C., 20 hours
Protocol: as §1

[11] = test system: Escherichia coli ATCC 25922; assay: as above; type: cell-based; settings: ATCC25922, Muller-Hinton agar, 37° C., 20 hours
Protocol: as §1

[12] = test system: Proteus vulgaris ATCC 6059; assay: as above; type: cell-based; settings: ATCC6059, Muller-Hinton agar, 37° C., 20 hours
Protocol: as §1

[13] = test system: Pseudomonas aerugionsa ATCC 10145; assay: as above; type: cell-based; settings: ATCC10145, Muller-Hinton agar, 37° C., 20 hours
Protocol: as §1

[14] = test system: Shigella sonnei ATCC 11060; assay: as above; type: cell-based; settings: ATCC11060, Muller-Hinton agar, 37° C., 20 hours
Protocol: as §1

[15] = test system: Escherichia coli ATCC 10536; assay: as above; type: cell-based; settings: ATCC10536, Muller-Hinton agar, 37° C., 20 hours
Protocol: as §1

[16] = test system: Bacillus cereus ATCC 11778; assay: as above; type: cell-based
Protocol: as §1

[17] = test system: Morganella morganii ATCC 8076h; assay: as above; type: cell-based; settings: ATCC8076H, 20 h
Protocol: as §1

[18] = test system: Klebsiella pneumoniae ATCC 10031; assay: as above; type: cell-based; settings: ATCC10031, Muller-Hinton agar, 37° C., 20 hours
Protocol: as §1

[19] = test system: Citrobacter freundii ATCC 8090; assay: as above; type: cell-based; settings: ATCC8090, Muller-Hinton agar, 37° C., 20 hours
Protocol: as §1

[20] = test system: Pseudomonas aerugionsa ATCC 27853; assay: as above; type: cell-based; settings: ATCC27853, Muller-Hinton agar, 37° C., 20 hours
Protocol: as §1

[21] = test system: Streptococcus faecalis ATCC 29212; assay: as above; type: cell-based; settings: Enterococcus faecalis, ATCC29212, Muller-Hinton agar, 37° C., 20 hours
Protocol: as §1

[22] = test system: Proteus mirabilis ATCC 25933; assay: as above; type: cell-based; settings: ATCC25933, Muller-Hinton agar, 37° C., 20 hours
Protocol: as §1

[23] = test system: Enterobacter aerogenes ATCC 29751; assay: as above; type: cell-based; settings: Klebsiella aerogenes
Protocol: as §1

[24] = acute toxicity test, intravenous; settings: mouse, in vivo, ICR mice, observed for 14 days
Excerpt: The results are shown in the last row of Table 2.

[25] = test system: Bacillus megaterium ATCC 9885; assay: minimal inhibitory concentration, two-fold agar dilution; type: cell-based; settings: Priestia megaterium
Protocol: as §1

[26] = Bacillus cereus, ATCC11778, 20 h

Row | Compound | MIC [1] [µg/mL] | MIC [2] [µg/mL] | MIC [3] [µg/mL] | MIC (ATCC 12228) [µg/mL] | MIC [4] [µg/mL] | MIC [5] [µg/mL] | MIC [6] [µg/mL] | MIC [7] [µg/mL] | MIC [8] [µg/mL] | MIC [9] [µg/mL] | MIC [10] [µg/mL] | MIC [11] [µg/mL] | MIC [12] [µg/mL] | MIC [13] [µg/mL] | MIC [14] [µg/mL] | MIC [15] [µg/mL] | MIC [18] [µg/mL] | MIC [19] [µg/mL] | MIC [20] [µg/mL] | MIC [21] [µg/mL] | other results
1 | Cc1c(N)nc(SCC2=C(C(=O)[O-])N3C(=O)C(NC(=O)/C(=N\O[C@H](C)C(=O)O)c4csc(N)n4)[C@H]3SC2)[n+](C)c1N (stereo partly drawn) [I-R-6, 7-[(Z)-2-(2-aminothiazol-4-yl)-2-[(R)-1-carboxyeth-1-oxyimino]acetamido]-3-[(4,6-diamino-1,5-dimethylpyrimidinium-2-yl)thiomethyl]-3-cephem-4-carboxylate] | 2 (≈ 3.21 µM) | 0.016 (≈ 0.0257 µM) | 2 (≈ 3.21 µM) | 2 (≈ 3.21 µM) | ≤ 0.008 | 4 (≈ 6.41 µM) | 4 (≈ 6.41 µM) | 0.13 (≈ 0.208 µM) | 0.031 (≈ 0.0497 µM) | 0.13 (≈ 0.208 µM) | 0.5 (≈ 0.802 µM) | 0.13 (≈ 0.208 µM) | 0.063 (≈ 0.101 µM) | 2 (≈ 3.21 µM) | 0.063 (≈ 0.101 µM) | 0.063 (≈ 0.101 µM) | 0.063 (≈ 0.101 µM) | 0.063 (≈ 0.101 µM) | 2 (≈ 3.21 µM) | > 128 | MIC [16, 26]: 128 µg/mL (≈ 205 µM); MIC [17]: ≤ 0.008 µg/mL; MIC [22]: 0.031 µg/mL (≈ 0.0497 µM); MIC ([23]; ATCC29751, 20 h): 1 µg/mL (≈ 1.6 µM); LD50 at 336 h [24]: > 3000 mg/kg
2 | C[C@H](O/N=C(\C(=O)NC1C(=O)N2C(C(=O)[O-])=C(CSc3nc(N)cc(N)[n+]3C)CS[C@H]12)c1csc(N)n1)C(=O)O (stereo partly drawn) [I-S-2, 7-[(Z)-2-(2-aminothiazol-4-yl)-2-[(S)-1-carboxyeth-1-oxyimino]acetamido]-3-[(4,6-diamino-1-methylpyrimidinium-2-yl)thiomethyl]-3-cephem-4-carboxylate] | 1 (≈ 1.64 µM) | ≤ 0.008 | 1 (≈ 1.64 µM) | 1 (≈ 1.64 µM) | ≤ 0.008 | 2 (≈ 3.28 µM) | 2 (≈ 3.28 µM) | 0.031 (≈ 0.0508 µM) | ≤ 0.008 | 0.13 (≈ 0.213 µM) | 0.13 (≈ 0.213 µM) | 0.016 (≈ 0.0262 µM) | 0.016 (≈ 0.0262 µM) | 1 (≈ 1.64 µM) | 0.031 (≈ 0.0508 µM) | 0.031 (≈ 0.0508 µM) | 0.016 (≈ 0.0262 µM) | 0.016 (≈ 0.0262 µM) | 0.5 (≈ 0.82 µM) | > 128 | MIC ([25]; ATCC9885, 20 h): 0.25 µg/mL (≈ 0.41 µM); MIC [16, 26]: 32 µg/mL (≈ 52.5 µM); MIC [22]: 0.016 µg/mL (≈ 0.0262 µM); MIC ([23]; ATCC29751, 20 h): 0.5 µg/mL (≈ 0.82 µM); LD50 at 336 h [24]: > 3000 mg/kg
3 | Cc1c(N)nc(SCC2=C(C(=O)[O-])N3C(=O)C(NC(=O)/C(=N\O[C@@H](C)C(=O)O)c4csc(N)n4)[C@H]3SC2)[n+](N)c1N (stereo partly drawn) [I-S-7, 7-[(Z)-2-(2-aminothiazol-4-yl)-2-[(S)-1-carboxyeth-1-oxyimino]acetamido]-3-[(5-methyl-1,4,6-triaminopyrimidinium-2-yl)thiomethyl]-3-cephem-4-carboxylate] | 2 (≈ 3.2 µM) | ≤ 0.008 | 0.5 (≈ 0.8 µM) | 1 (≈ 1.6 µM) | ≤ 0.008 | 2 (≈ 3.2 µM) | 4 (≈ 6.4 µM) | 0.063 (≈ 0.101 µM) | 0.016 (≈ 0.0256 µM) | 0.063 (≈ 0.101 µM) | 0.25 (≈ 0.4 µM) | 0.016 (≈ 0.0256 µM) | 0.016 (≈ 0.0256 µM) | 1 (≈ 1.6 µM) | 0.031 (≈ 0.0496 µM) | 0.031 (≈ 0.0496 µM) | 0.016 (≈ 0.0256 µM) | 0.016 (≈ 0.0256 µM) | 0.5 (≈ 0.8 µM) | > 128 | MIC ([25]; ATCC9885, Bacillus megaterium ATCC 9885, Muller-Hinton agar, 37° C., 20 hours, read-out: MIC): 26 µg/mL (≈ 41.6 µM); MIC ([16]; ATCC11778, Bacillus cereus ATCC 11778, Muller-Hinton agar, 37° C., 20 hours, read-out: MIC): 84 µg/mL (≈ 134 µM); MIC [22]: 0.016 µg/mL (≈ 0.0256 µM); MIC ([23]; ATCC29751, Enterobacter aerogenes ATCC 29751, Muller-Hinton agar, 37° C., 20 hours, read-out: MIC): 0.15 µg/mL (≈ 0.24 µM); LD50 at 336 h [24]: > 5000 mg/kg
